Experimental findings from patent publication US20110172274A1, “FLUORO-SUBSTITUTED 3,4-DIARYL-4,5-DIHYDRO-1H-PYRAZOLE-1-CARBOXAMIDINE DERIVATIVES HAVING CB1-ANTAGONISTIC ACTIVITY” (priority 2008, published 2011) are described below.

The target in data set [1] is T1, human cannabinoid CB1 receptors (Homo sapiens, UniProt P21554).
T1 construct: expressed in transfected cells; host or cells: Chinese hamster ovary (CHO) cells, membrane preparations
Put plainly: In vitro affinity for cannabinoid-CB1 receptors, [3H]CP-55,940 radioligand binding, CHO cell membranes. Particulars: for factor of higher affinity for human CB1 receptors than non-fluorinated analog compound 24: (S)-(-)-enantiomers versus compound 24; for Ki: CHO membranes, [3H]CP-55,940, means of at least two independent experiments, read-out: receptor binding h-CB1 receptor Ki. Here is the method: In vitro affinity for cannabinoid-CB1 receptors was determined using membrane preparations of Chinese hamster ovary (CHO) cells wherein human cannabinoid CB1 receptors were stably transfected in conjunction with [^3H]CP-55,940 as radioligand. After incubation of a freshly prepared cell membrane preparation with the [^3H]-ligand, with or without addition of compounds of the invention, separation of bound and free ligand was performed by filtration over glassfiber filters. Radioactivity on the filter was measured by liquid scintillation counting. The binding data were either obtained by CEREP (128, rue Danton, 92500 Rueil-Malmaison, France) or at Solvay Pharmaceuticals B.V. (C. J. van Houtenlaan 36, 1381 CP Weesp, The Netherlands).

Data set [2] has as its target T2, human cannabinoid CB2 receptors (Homo sapiens, UniProt P34972).
T2 construct: expressed in transfected cells; host or cells: CHO cells, membrane preparations
Put plainly: In vitro affinity for cannabinoid-CB2 receptors, [3H]CP-55,940 radioligand binding, CHO cell membranes. The note with it: means of at least two independent experiments, read-out: receptor binding h-CB2 receptor Ki. Here is the method:
In vitro affinity for cannabinoid-CB2 receptors was determined using membrane preparations of CHO cells wherein human cannabinoid CB2 receptors were stably transfected in conjunction with [^3H]CP-55,940 as radioligand. After incubation of a freshly prepared cell membrane preparation with the [^3H]-ligand, with or without addition of compounds of the invention, separation of bound and free ligand was performed by filtration over glassfiber filters. Radioactivity on the filter was measured by liquid scintillation counting.

For a further data set, the target named is T3, rat CB1 receptor (Rattus norvegicus, UniProt P20272).
T3 construct: Male normotensive rats (225-300 g; Harlan, Horst, The Netherlands) were anaesthetized; from tissue; host or cells: whole animal: male normotensive rats (Harlan)
T3 sequence (P20272 whole entry): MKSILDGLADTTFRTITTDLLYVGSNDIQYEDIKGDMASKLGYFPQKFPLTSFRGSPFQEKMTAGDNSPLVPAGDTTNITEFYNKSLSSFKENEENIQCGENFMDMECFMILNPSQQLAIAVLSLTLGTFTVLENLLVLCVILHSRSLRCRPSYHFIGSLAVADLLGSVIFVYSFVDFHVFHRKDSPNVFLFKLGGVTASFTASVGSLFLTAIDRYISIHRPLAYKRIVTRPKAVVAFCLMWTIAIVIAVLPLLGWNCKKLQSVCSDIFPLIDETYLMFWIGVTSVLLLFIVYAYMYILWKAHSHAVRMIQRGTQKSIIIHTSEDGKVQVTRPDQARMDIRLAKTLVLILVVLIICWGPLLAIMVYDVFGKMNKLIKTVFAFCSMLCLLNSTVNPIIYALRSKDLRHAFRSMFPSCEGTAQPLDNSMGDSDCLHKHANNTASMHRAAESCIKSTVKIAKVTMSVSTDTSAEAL
Put plainly: In vivo cannabinoid-CB1 receptor antagonism, CP-55,940-induced hypotension test in rat. The note with it: for ED50: rat, p.o., anaesthetized male rats, CP-55,940 0.1 mg/kg i.v., read-out: blood pressure rat CB1 receptor ED50 (mg/kg, p.o.). Here is the method: In vivo cannabinoid-CB1 receptor antagonism was assessed with the CP-55,940-induced hypotension test in rat. Male normotensive rats (225-300 g; Harlan, Horst, The Netherlands) were anaesthetized with pentobarbital (80 mg/kg ip). Blood pressure was measured, via a cannula inserted into the left carotid artery, by means of a Spectramed DTX-plus pressure transducer (Spectramed B.V., Bilthoven, The Netherlands). After amplification by a Nihon Kohden Carrier Amplifier (Type AP-621G; Nihon Kohden B.V., Amsterdam, The Netherlands), the blood pressure signal was registered on a personal computer (Compaq Deskpro 386s), by means of a Po-Ne-Mah data-acquisition program (Po-Ne-Mah Inc., Storrs, USA). Heart rate was derived from the pulsatile pressure signal. All compounds were administered orally as a microsuspension in 1% methylcellulose 30 minutes before induction of the anesthesia, 60 minutes prior to administration of the CB1 receptor agonist CP-55,940. The injection volume was 10 ml/kg. After haemodynamic stabilization the CB1 receptor agonist CP-55,940 (0.1 mg/kg i.v.) was administered and the hypotensive effect established (Wagner 2001).

By Ki is commonly meant the equilibrium dissociation constant of an inhibitor or competing ligand from its target. What is called melting point is the temperature, or range, at which the solid turns liquid.

Where only a bound is given, the exact number is not on record here.

T1 sequence (P21554 whole entry): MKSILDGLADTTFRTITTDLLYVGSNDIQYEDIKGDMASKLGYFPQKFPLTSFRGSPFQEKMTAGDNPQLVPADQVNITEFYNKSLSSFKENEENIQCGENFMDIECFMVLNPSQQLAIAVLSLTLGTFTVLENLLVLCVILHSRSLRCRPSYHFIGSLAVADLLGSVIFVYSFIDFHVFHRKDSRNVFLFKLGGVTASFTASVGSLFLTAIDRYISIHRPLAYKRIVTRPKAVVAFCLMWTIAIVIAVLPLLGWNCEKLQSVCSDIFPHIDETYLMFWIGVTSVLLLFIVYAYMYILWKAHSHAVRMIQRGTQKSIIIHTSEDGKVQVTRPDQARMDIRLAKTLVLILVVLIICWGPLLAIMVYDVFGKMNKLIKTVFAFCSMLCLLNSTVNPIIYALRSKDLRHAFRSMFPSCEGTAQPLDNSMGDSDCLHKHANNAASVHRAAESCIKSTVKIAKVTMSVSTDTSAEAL
T2 sequence (P34972 whole entry): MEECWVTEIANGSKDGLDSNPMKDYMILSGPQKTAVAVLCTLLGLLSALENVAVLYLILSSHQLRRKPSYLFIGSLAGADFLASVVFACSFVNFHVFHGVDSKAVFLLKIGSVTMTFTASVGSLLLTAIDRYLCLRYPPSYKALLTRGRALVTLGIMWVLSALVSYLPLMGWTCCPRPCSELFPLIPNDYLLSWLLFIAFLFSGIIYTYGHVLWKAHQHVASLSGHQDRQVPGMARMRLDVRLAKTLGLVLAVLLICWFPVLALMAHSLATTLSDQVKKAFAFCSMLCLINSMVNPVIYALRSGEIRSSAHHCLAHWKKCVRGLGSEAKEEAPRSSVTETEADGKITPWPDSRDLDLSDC

For `CN=C(NS(=O)(=O)N1CCC(C(F)(F)F)CC1)N1C[C@H](c2ccccc2)C(c2ccc(Cl)cc2)=N1` [compound 9, (−)-(4S)—N-[(4-(Trifluoromethyl)piperidin-1-yl)sulfonyl]-N′-methyl-3-(4-chlorophenyl)-4-phenyl-4,5-dihydro-(1H)-pyrazole-1-carboxamidine], the “factor of higher affinity for human CB1 receptors than non-fluorinated analog compound 24” value in data set [1] stood at 19 fold. Besides, the Ki in data set [1] was 3 nM; in data set [2], 316 nM. The “in vivo activity after oral administration compared with compound 24” value on rat CB1 receptor (oral administration, CP-55,940-induced hypotension test) is “more active”. Besides, the ED50 at rat CB1 receptor came out at 2 mg/kg.

Turning to `CN=C(NS(=O)(=O)N1CCC(C(F)(F)F)CC1)N1C[C@@H](c2ccccc2)C(c2ccc(Cl)cc2)=N1` [compound 10, (+)-(4R)—N-[(4-(Trifluoromethyl)piperidin-1-yl)sulfonyl]-N′-methyl-3-(4-chlorophenyl)-4-phenyl-4,5-dihydro-(1H)-pyrazole-1-carboxamidine], the inhibition constant Ki is 125 nM in data set [1] and above 1000 nM in data set [2]. For the same compound, the “affinity for human CB1 receptors, fold less than that of compound 9” value in data set [1] (distomer versus eutomer compound 9) is “about 40 fold”. The “in vivo activity in the hypotension test” value at rat CB1 receptor (given at 30 mg/kg) is “devoid of in vivo activity”. Moreover, on rat CB1 receptor, the ED50 was above 30 mg/kg.

`CNC(=NS(=O)(=O)N1CCCCC1)N1C[C@@H](c2ccccc2)C(c2ccc(Cl)cc2)=N1` [compound 25, reference compound]: the Ki in data set [1] was determined as 763 nM.

Turning to `CN/C(=N\S(=O)(=O)N1CCC(C(F)(F)F)CC1)N1CC(c2ccccc2)C(c2ccc(Cl)cc2)=N1` (racemic) [compound 2, N-[(4-(Trifluoromethyl)piperidin-1-yl)sulfonyl]-N′-methyl-3-(4-chlorophenyl)-4-phenyl-4,5-dihydro-(1H)-pyrazole-1-carboxamidine], in data set [1], the Ki was found to be 3 nM.

For the compound `CN/C(=N/S(=O)(=O)N1CCCCC1)N1C[C@H](c2ccccc2)C(c2ccc(Cl)cc2)=N1` [compound 24, reference compound], the figures for the Ki in data set [1] and in data set [2] were 58 nM and 3500 nM, respectively. For the same compound, at rat CB1 receptor, the ED50 turned out to be 8 mg/kg.

For `CN=C(NS(=O)(=O)N1CCC(F)(F)CC1)N1C[C@H](c2ccccc2)C(c2ccc(Cl)cc2)=N1` [compound 8, (−)-(4S)—N-[(4,4-difluoropiperidin-1-yl)sulfonyl]-N′-methyl-3-(4-chlorophenyl)-4-phenyl-4,5-dihydro-(1H)-pyrazole-1-carboxamidine], in data set [1], the “factor of higher affinity for human CB1 receptors than non-fluorinated analog compound 24” value stood at 12 fold and the Ki was 5 nM.

Turning to `CN(C)/C(=N/S(=O)(=O)N1CCC(F)(F)CC1)N1CC(c2ccccc2)C(c2ccc(Cl)cc2)=N1` (centres unmarked) [compound 7, N^2-[(4,4-Difluoropiperidin-1-yl)sulfonyl]-N^1-dimethyl-3-(4-chlorophenyl)-4-phenyl-4,5-dihydro-(1H)-pyrazole-1-carboxamidine], in data set [1], the inhibition constant (Ki) came to 25 nM.

In turn, `CN=C(NS(=O)(=O)N1CCCC(F)C1)N1CC(c2ccccc2)C(c2ccc(Cl)cc2)=N1` (racemic) [compound 4, N-[(3-Fluoropiperidin-1-yl)sulfonyl]-N′-methyl-3-(4-chlorophenyl)-4-phenyl-4,5-dihydro-(1H)-pyrazole-1-carboxamidine] came in with a melting point of 170 to 171 °C. Moreover, the Ki in data set [1] is 16 nM.

On to `CN=C(NS(=O)(=O)N1CCCC(F)(F)C1)N1CC(c2ccccc2)C(c2ccc(Cl)cc2)=N1` (racemic) [compound 5, N-[(3,3-Difluoropiperidin-1-yl)sulfonyl]-N′-methyl-3-(4-chlorophenyl)-4-phenyl-4,5-dihydro-(1H)-pyrazole-1-carboxamidine], for which the melting point lay within 166 to 167 °C. Further, the inhibition constant (Ki) in data set [1] worked out at 10 nM.

In the case of `CCN=C(NS(=O)(=O)N1CCC(F)(F)CC1)N1CC(c2ccccc2)C(c2ccc(Cl)cc2)=N1` (racemic) [compound 6, N-[(4,4-Difluoropiperidin-1-yl)sulfonyl]-N′-ethyl-3-(4-chlorophenyl)-4-phenyl-4,5-dihydro-(1H)-pyrazole-1-carboxamidine], the inhibition constant Ki in data set [1] stood at 10 nM.

Turning to `CNC(=NS(=O)(=O)N1CCC(F)CC1)N1CC(c2ccccc2)C(c2ccc(Cl)cc2)=N1` (racemic) [compound 3, N-[(4-Fluoropiperidin-1-yl)sulfonyl]-N′-methyl-3-(4-chlorophenyl)-4-phenyl-4,5-dihydro-(1H)-pyrazole-1-carboxamidine], the Ki in data set [1] was 5 nM.

As for `CN/C(=N/S(=O)(=O)N1CCCCC1)N1CC(c2ccccc2)C(c2ccc(Cl)cc2)=N1` (centres unmarked) [compound 21, reference compound], in data set [1], the inhibition constant (Ki) worked out at 152 nM.

As to `CN=C(NS(=O)(=O)N1CCC(F)(F)CC1)N1CC(c2ccccc2)C(c2ccc(Cl)cc2)=N1` (racemic) [compound 1, N-[(4,4-difluoropiperidin-1-yl)sulfonyl]-N′-methyl-3-(4-chlorophenyl)-4-phenyl-4,5-dihydro-(1H)-pyrazole-1-carboxamidine], the Ki in data set [1] amounted to 10 nM.
